ChEMBL document CHEMBL3091403, “Desmethyl Macrolides: Synthesis and Evaluation of 4,8,10-Tridesmethyl Cethromycin” (2013)
In brackets after ≈: the same amount, converted by molar mass.

What was measured:
Type in all cases: functional
Escherichia coli [1] = test: Antibacterial activity against wild-type Escherichia coli DK/pKK3535
Staphylococcus aureus [2] = test: Antibacterial activity against Staphylococcus aureus ATCC 33591 harboring ribosomal ermA mutant
Escherichia coli [3] = test: Antibacterial activity against Escherichia coli DK/2058G harboring ribosomal A2058G mutant
Escherichia coli [4] = test: Antibacterial activity against Escherichia coli SQ171/2058G harboring ribosomal A2058G mutant
Staphylococcus aureus [5] = test: Antibacterial activity against Staphylococcus aureus UCN14 harboring ribosomal A2058U mutant

With CC[C@H]1OC(=O)[C@H](C)C(=O)C[C@@H](O[C@@H]2O[C@H](C)C[C@H](N(C)C)[C@H]2O)[C@](C)(OC/C=C/c2cnc3ccccc3c2)CCC(=O)C[C@H]2NC(=O)O[C@@]21C the MIC (Escherichia coli [1]) was 2 µg/mL (≈ 2.76 µM), the MIC (Staphylococcus aureus [2]) was greater than 64 µg/mL and the MIC (Escherichia coli [3]) was 1 µg/mL (≈ 1.38 µM). It also gave an MIC (Escherichia coli [4]) greater than 256 µg/mL and an MIC (Staphylococcus aureus [5]) greater than 256 µg/mL.
